Results on 1 molecule are retold here after PMC9093646, “Physicochemical and Biochemical Evaluation of Amorphous Solid Dispersion of Naringenin Prepared Using Hot-Melt Extrusion” (Frontiers in Nutrition, 2022).

Each structure is given as a SMILES string. Converted amounts (≈) assume the structure as drawn.

A short description of one series: Solubility test (HPLC). In kind it is physicochemical. Conditions: aqueous buffer, thermodynamic from solid, dissolution test solution 2 (pH 6.8), 37°C, read-out: water solubility. The protocol:
The prepared NRG SD (500 mg; equivalent to 50 mg NRG) was added to 2.5 mL dissolution test solution 2. The mixture was shaken vigorously at 37°C for 30 min and centrifuged ([15], [17]). The supernatant was then passed through a 0.2-μm filter and subjected to high-performance liquid chromatography (HPLC) analysis. The NRG concentration was determined using an HPLC system fitted with the LC-20AD pump and the SPD-M20 detector (Shimadzu Corp., Kyoto, Japan) ([15]). A reverse-phase column (CAPCELL PAK C18 MGII; 4.6 mm × 100 mm; 5 μm; Shiseido Co., Ltd., Tokyo, Japan) was operated at 40°C. The mobile phase consisted of a methanol-water (45:55, v/v) mixture with 0.05% (v/v) phosphoric acid, and it was ultrasonically degassed before use. The flow rate was set at 1 mL/min, and the detection wavelength was set at 289 nm. The sample injection volume was 10 μL. The HPLC was calibrated using standard methanol-water (50:50, v/v) NRG solutions in the concentration range of 0.125–40 μg/mL.

Details of series [1]: method as in PMID 17047689. Conditions: humans; cited from earlier work.
The nature of series [2]: Pharmacokinetics after intravenous administration of serum containing unchanged NRG and NRG metabolites. The following applies: rats. The format is in vivo, rat. The protocol: The same amount of NRG SD was intragastrically administered 5 min later. Blood was collected from the heart under isoflurane anesthesia 35 min after the first administration and stored at 4°C for several hours. Serum was then isolated by centrifugation and analyzed by liquid chromatography-tandem mass spectrometry (LC-MS/MS). […] Serum containing the unchanged NRG and NRG metabolites was administered via the tail vein at a dose of 500 μL/rat. […] The plasma was isolated by centrifugation. […] The mixture was centrifuged at 4°C, and 25 μL supernatant was collected and mixed with 75 μL of 30% (v/v) acetonitrile. […] The samples were incubated at 37°C overnight and extracted using the same method that was employed for those containing the unchanged NRG. LC-MS/MS analysis was performed using an ACQUITY UPLC system (Waters Corp., Milford, MA, United States) fitted with a cooling autosampler and a column oven with temperature control. Mass spectrometry was performed using a Waters Xevo TQ-S tandem quadrupole mass spectrometer (QQ-MS; Waters Corp.). Chromatographic separation was performed on an ACQUITY UPLC BEH C18 1.7 μm column (50 mm × 2.1 mm; Waters Corp.). […] The flow rate was set at 0.5 mL/min. The sample injection volume was 5 μL. […]. Positive electrospray ionization was used to generate the parental ions. Multiple reaction monitoring, using precursor → product ion transitions of m/z 273.04 → 152.97 and m/z 255.10 → 198.99, was used to quantify NRG and daidzein (internal standard), respectively.

Series [3] is described as follows: Dissolution test, Japanese Pharmacopoeia paddle method. In kind it is physicochemical. Conditions: test solution 1 (pH 1.2), after 120 min. Here is the method: The dissolution test was conducted using the paddle method described in the Japanese Pharmacopoeia ([26]). First, 900 mL dissolution test solution 1 or 2 was placed in the dissolution tester vessel and then 30 mg of crystalline NRG, 300 mg of PM, and 300 mg of SD were added to it. The temperature (37°C) and stirring rate (100 rpm) were maintained during the experiment. Samples were collected 2, 5, 10, 20, 30, 45, 60, 90, and 120 min after sample addition. The solutions were passed through 0.2-μm filters, and the filtrates were subjected to HPLC analysis.

Series [4] relates to acetic acid-induced writhing in rats. Kind of series: Acetic acid-induced writhing test. Conditions: oral 5 min before i.p. acetic acid, counted over 25 min, crystalline NRG 100 mg/kg, NRG SD 30 or 100 mg/kg. The format is in vivo, rat. Here is the method:
The acetic acid-induced writhing test was performed according to the method of Pinho-Ribeiro et al. ([8]) with modifications. Rats aged 5–7 weeks were fasted for 16 h and divided into four groups of eight animals per group. The first group was intragastrically administered 10 mL/kg saline as a control. The second group was intragastrically administered crystalline NRG at 100 mg/kg BW. The third and fourth groups were intragastrically administered NRG SD equivalent to 30 mg/kg and 100 mg/kg BW NRG, respectively. After 5 min, each rat was intraperitoneally injected with 10 mL/kg of 0.8% (v/v) acetic acid in saline solution. Visceral pain intensity was quantified by enumerating the abdominal writhing within 0–25 min after the stimulus. The writhing response was characterized by the contraction of abdominal muscles and stretching of the hind limbs.

The nature of series [5]: Pharmacokinetics after oral administration. In kind it is in vivo, rat. The following applies: rats, equivalent to 100 mg/kg NRG. The protocol:
Each solution was suspended in ion-exchange water immediately prior to administration. […] The blood was stored in heparinized hematocrit tubes, and the plasma was isolated by centrifugation. […] The samples were incubated at 37°C overnight and extracted using the same method that was employed for those containing the unchanged NRG. LC-MS/MS analysis was performed using an ACQUITY UPLC system (Waters Corp., Milford, MA, United States) fitted with a cooling autosampler and a column oven with temperature control. Mass spectrometry was performed using a Waters Xevo TQ-S tandem quadrupole mass spectrometer (QQ-MS; Waters Corp.). Chromatographic separation was performed on an ACQUITY UPLC BEH C18 1.7 μm column (50 mm × 2.1 mm; Waters Corp.). […] Positive electrospray ionization was used to generate the parental ions. Multiple reaction monitoring, using precursor → product ion transitions of m/z 273.04 → 152.97 and m/z 255.10 → 198.99, was used to quantify NRG and daidzein (internal standard), respectively.

For `O=C1C[C@@H](c2ccc(O)cc2)Oc2cc(O)cc(O)c21` [NRG, Naringenin], the solubility (usually how much of the substance goes into solution per volume) at 30 min in “Solubility test (HPLC)” was 70 µg/mL (≈ 257 µM). In series [1], the “cumulative urinary excretion rate relative to the oral NRG dose” value is about 5.8%. The clearance – broadly, a measure of how efficiently the substance is removed, as volume per time – in series [2] (plasma, iv, i.v., serum 500 μL/rat, two-compartment model, read-out: CL, total body clearance (converted)) was 2.67 mL/min. Moreover, in series [2] (plasma, iv, i.v., serum 500 μL/rat, two-compartment model, read-out: Vd, volume of distribution), the distribution volume (Vd) (commonly the apparent volume that relates the amount in the body to the concentration in plasma or blood) stood at 0.19 ± 0.08 L/kg. Also, the k el in series [2] (plasma, iv, i.v., serum 500 μL/rat, two-compartment model, read-out: ke, elimination rate constant (converted)) is 0.00509 s⁻¹. For the same molecule, the half-life in series [2] (plasma, iv, i.v., serum 500 μL/rat, two-compartment model, read-out: t1/2, elimination half-life time (converted)) was 0.99 ± 0.33 h. The AUC(0-t) in series [2] (plasma, iv, serum 500 μL/rat, two-compartment model) stood at 120 ± 20 ng·h/mL; in series [5] (rat, plasma, po, 100 mg/kg, unchanged NRG in plasma, read-out: AUC0–1 h) it was 30 ± 10 ng·h/mL; in series [5] (rat, plasma, po, 100 mg/kg, unchanged NRG in plasma, read-out: AUC0–t), 740 ± 240 ng·h/mL. Besides, the AUC(0-inf) – broadly, the area under the concentration-time curve extrapolated to infinity – in series [2] (plasma, iv, serum with 34.8 μg/mL unchanged NRG and 134.5 μg/mL NRG metabolites, 500 μL/rat, two-compartment model) was 130 ± 20 ng·h/mL; in series [5] (rat, unchanged NRG in plasma), 740 ± 240 ng·h/mL. Moreover, the “distribution volume as share of the body weight” value in series [2] (i.v.) was about 20%. Moreover, in series [3], the “dissolved NRG” value amounted to 40%. In addition, the “number of writhings compared to the control” value in series [4] was “significantly decreased”. The bioavailability (commonly the share of a dose that reaches the circulation, judged against a reference dose that is usually intravenous) in series [5] (rat, plasma, po, 100 mg/kg, unchanged NRG, read-out: F, absolute bioavailability) was about 0.5%. In series [5] (rat, unchanged NRG in plasma), the Cmax (in general, the maximum level reached in the sampled fluid or tissue) was 130 ± 10 ng/mL. In addition, in series [5] (rat, unchanged NRG in plasma), the Tmax (commonly the time at which the peak concentration occurs) was 4 ± 1.26 h. Further, in series [5] (unchanged NRG), the “F, absolute bioavailability” value stood at 0.52 ± 0.17%.
